Results: US4684651A, “Alkylenedioxybenzene and acid addition salts thereof useful as hypotensives” (Mitsubishi Chemical Industries Limited, priority 1981, dated 1987)
Structures can show the parent of a compound that is named as a salt.

Tests used:
[1] = test system: spontaneous hypertensive rats (SHR); assay: Hypotensive activity in spontaneous hypertensive rats (oral); assay type: in vivo; settings: Rattus norvegicus, relative to blood pressure before medication, read-out: Hypotensive effect (average % drop in blood pressure); for inhibition in vivo at 1 mg/kg: 1 mg/kg p.o.; for inhibition in vivo at 3 mg/kg: 3 mg/kg p.o.; for inhibition in vivo at 10 mg/kg: 10 mg/kg p.o.
Procedure: The hypotensive activities of the compounds of this invention were tested as follows: The test animals used were spontaneous hypertensive rats (SHR) of 5 to 7 month old weighing 300 to 370 g. The blood pressure and the heart rate were measured bloodily under no anesthesia by means of a catheter which has been inserted through the tail's artery under ether anesthesia, thereby determining the average blood pressure and heart rate before medication. […] The hypotensive effect was expressed as percent drop relative to the blood pressure before medication.

[2] = Acute toxicity (LD50) in mice; settings: mouse, in vivo, iv, Litchfield-Wilcoxon method
Procedure: The values for acute toxicity (LD50) were calculated by the Litchfield-Wilcoxon method from the data obtained on mice.

| Structure (SMILES) | inhibition in vivo at 1 mg/kg [1] [%] | inhibition in vivo at 3 mg/kg [1] [%] | inhibition in vivo at 10 mg/kg [1] [%] | LD50 [2] [mg/kg] |
| --- | --- | --- | --- | --- |
| COc1ccccc1N1CCN(CC(O)c2ccc3c(c2)OCO3)CC1 (centres unmarked) [Compound 2, 5-[2-[4-(2-methoxyphenyl)-1-piperazinyl]-1-hydroxyethyl]-1,3-benzodioxole] | 10.2 | 19.2 | 36.5 |  |
| OC(CN1CCN(c2ccccc2)CC1)c1ccc2c(c1)OCCCO2 (centres unmarked) [Compound 8, 7-[2-(4-phenyl-1-piperazinyl)-1-hydroxyethyl]-1,5-benzodioxepine] | 8.6 | 14.1 | 25 |  |
| OC(CCN1CCN(c2ccccc2Cl)CC1)c1ccc2c(c1)OCCO2 (centres unmarked) [Compound 16] | 7.9 | 11.9 | 29.8 |  |
| COc1ccccc1N1CCN(CCC(O)c2ccc3c(c2)OCCO3)CC1 (centres unmarked) [Compound 17] | 8.1 | 20.5 | 53.1 |  |
| OC(CCCN1CCN(c2ccccc2)CC1)c1ccc2c(c1)OCO2 (centres unmarked) [Compound 19, 5-[4-(4-phenyl-1-piperazinyl)-1-hydroxybutyl]-1,3-benzodioxole dihydrochloride] | 12.8 | 45.9 | 56.6 |  |
| OC(CCCN1CCN(c2ccccc2)CC1)c1ccc2c(c1)OCCO2 (centres unmarked) [Compound 20, 6-[4-(4-phenyl-1-piperazinyl)-1-hydroxybutyl]-1,4-benzodioxane] | 13.7 | 38.4 | 56.1 |  |
| OC(CCCN1CCN(c2ccccc2)CC1)c1ccc2c(c1)OCCCO2 (centres unmarked) [Compound 21] | 19.8 | 30.9 | 43.4 | 184 |
| OC(CCCN1CCN(c2ccccn2)CC1)c1ccc2c(c1)OCCCO2 (centres unmarked) [Compound 25] | 30.3 | 35.8 | 43.9 | 68.5 |
| OC(CCCCN1CCN(c2ccccc2)CC1)c1ccc2c(c1)OCO2 (centres unmarked) [Compound 26, 5-[5-(4-phenyl-1-piperazinyl)-1-hydroxypentyl]-1,3-benzodioxole] | 13 | 21.9 | 52.6 |  |
| OC(CCCCN1CCN(c2ccccc2)CC1)c1ccc2c(c1)OCCCO2 (centres unmarked) [Compound 29, 7-[5-(4-phenyl-1-piperazinyl)-1-hydroxypentyl]-1,5-benzodioxepine] | 10.8 | 27.5 | 50.7 |  |
| OC(CCCN1CCN(c2ccccn2)CC1)c1ccc2c(c1)OCO2 (centres unmarked) [Compound 31, 5-[4-[4-(2-pyridyl)-1-piperazinyl]-1-hydroxybutyl]-1,3-benzodioxole] | 11.5 | 33.6 | 45.7 |  |
| COc1ccccc1N1CCN(CCCC(O)c2ccc3c(c2)OCCO3)CC1 (centres unmarked) [Compound 33, 6-[4-[4-(2-methoxyphenyl)-1-piperazinyl]-1-hydroxybutyl]-1,4-benzodioxane] | 22.6 | 41.8 | 43.2 |  |
| COc1ccccc1N1CCN(CCCC(O)c2ccc3c(c2)OCCCO3)CC1 (centres unmarked) [Compound 34, 7-[4-[4-(2-methoxyphenyl)-1-piperazinyl]-1-hydroxybutyl]-1,5-benzodioxepine] | 24.5 | 40.4 | 48 |  |
| OC(CCCCN1CCN(c2ccccn2)CC1)c1ccc2c(c1)OCCCO2 (centres unmarked) [Compound 36] | 10.1 | 19.4 | 31 |  |
| COc1ccccc1N1CCN(CCCCC(O)c2ccc3c(c2)OCCCO3)CC1 (centres unmarked) [Compound 37] | 15.6 | 30.4 | 45.7 |  |
| O=C(CCN1CCN(c2cccc(F)c2)CC1)c1ccc2c(c1)OCCO2 [Compound 51] | 5.9 | 14.5 | 49.9 |  |

| Structure (SMILES) | inhibition in vivo at 1 mg/kg [1] [%] | inhibition in vivo at 3 mg/kg [1] [%] | inhibition in vivo at 10 mg/kg [1] [%] | LD50 [2] [mg/kg] |
| --- | --- | --- | --- | --- |
| O=C(CCN1CCN(c2ccccc2)CC1)c1ccc2c(c1)OCCCO2 [Compound 56] | 6.2 | 17 | 31.5 |  |
| O=C(CCCN1CCN(c2ccccc2)CC1)c1ccc2c(c1)OCCO2 [Compound 58, 6-[4-(4-phenyl-1-piperazinyl)butyryl]-1,4-benzodioxane] | 12.7 | 51.6 | 62.7 |  |
| O=C(CCCN1CCN(c2ccccc2)CC1)c1ccc2c(c1)OCCCO2 [Compound 59] | 9.8 | 34.4 | 40.5 |  |
| O=C(CCCCN1CCN(c2ccccc2)CC1)c1ccc2c(c1)OCO2 [Compound 64, 5-[5-(4-phenyl-1-piperazinyl]valeryl]-1,3-benzodioxole] | 10.1 | 21.3 | 54.5 | 45.7 |
| O=C(CCCCN1CCN(c2ccccc2)CC1)c1ccc2c(c1)OCCO2 [Compound 65, 6-[5-(4-phenyl-1-piperwzinyl)valeryl]-1,4-benzodioxane] | 21.7 |  |  |  |
| O=C(CCCCN1CCN(c2ccccc2)CC1)c1ccc2c(c1)OCCCO2 [Compound 68, 7-[5-(4-phenyl-1-piperazinyl)valeryl]-1,5-benzodioxepine] | 12.5 | 28.6 | 44 |  |
| COc1ccccc1N1CCN(CCCCC(=O)c2ccc3c(c2)OCCCO3)CC1 [Compound 69] | 23.8 |  |  |  |
| O=C(CCCN1CCN(c2ccccn2)CC1)c1ccc2c(c1)OCO2 [Compound 71, 5-[4-[4-(2-pyridyl)-1-piperazinyl]butyryl]-1,3-benzodioxole] | 11.5 | 20.9 | 43.1 |  |
| O=C(CCCN1CCN(c2ccccn2)CC1)c1ccc2c(c1)OCCO2 [Compound 72, 6-[4-[4-(2-pyridyl)-1-piperazinyl]butyryl]-1,4-benzodioxane] | 10.1 | 25.3 | 46.4 |  |
| COc1ccccc1N1CCN(CCCC(=O)c2ccc3c(c2)OCCO3)CC1 [Compound 74, 6-[4-[4-(2-methoxyphenyl)-1-piperazinyl]butyryl]-1,4-benzodioxane] | 29.9 |  |  |  |
| COc1ccccc1N1CCN(CCCCC(=O)c2ccc3c(c2)OCCO3)CC1 [Compound 76, 6-[5-[4-(2-methoxyphenyl)-1-piperazinyl]varleryl]-1,4-benzodioxane] | 8.6 | 23.7 | 56.7 |  |
| COc1ccccc1N1CCN(CCCCC(=O)c2ccc3c(c2)OCO3)CC1 [Compound 77, 5-[5-[4-(2-methoxyphenyl)-1-piperazinyl]valeryl]-1,3-benzodioxole] | 12.9 | 21.5 | 34.5 |  |
| O=C(CCCCN1CCN(c2ccccn2)CC1)c1ccc2c(c1)OCCCO2 [Compound 78, 7-[5-[4-(2-pyridyl)-1-piperazinyl]valeryl]-1,5-benzodioxepine] | 13.7 | 24.9 | 27.8 |  |
| COc1ccccc1N1CCN(CCCCC(=O)c2ccc3c(c2)OCC(C)(C)CO3)CC1 [Compound 79, 7-[5-[4-(2-methoxyphenyl)-1-piperazinyl]valeryl]-3,3-dimethyl-1,5-benzodioxepine] | 8 | 15.8 | 32.5 |  |
| COc1ccccc1N1CCN(CCN(C(C)=O)c2ccc3c(c2)OCO3)CC1 [Compound 81, N-[2-[4-(2-methoxyphenyl)-1-piperazinyl]ethyl]-N-acetyl-3,4-methylenedioxyaniline hydrochloride] | 15.5 | 21.2 |  |  |
